From PubChem BioAssay (NCI)
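Interpolation was linear, between the two tested concentrations surrounding the appropriate level; five concentrations were tested over 48 hours in 96-well plates. GI50 is the concentration that inhibits growth by half. TGI: concentration producing complete growth inhibition.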

How the values were obtained:
Assay in all cases: NCI anticancer screen, dose series, 48 h
786-0 renal = tested on: 786-0 renal
A498 renal = tested on: A498 renal
A549 NSCLC = tested on: A549 NSCLC
ACHN renal = tested on: ACHN renal
BT-549 breast = tested on: BT-549 breast
CCRF-CEM leukemia = tested on: CCRF-CEM leukemia
COLO 205 colon = tested on: COLO 205 colon
DU-145 prostate = tested on: DU-145 prostate
EKVX NSCLC = tested on: EKVX NSCLC
HCC-2998 colon = tested on: HCC-2998 colon
HCT-116 colon = tested on: HCT-116 colon
HCT-15 colon = tested on: HCT-15 colon
HL-60(TB) leukemia = tested on: HL-60(TB) leukemia
HOP-62 NSCLC = tested on: HOP-62 NSCLC
HOP-92 NSCLC = tested on: HOP-92 NSCLC
HT29 colon = tested on: HT29 colon
IGROV1 ovarian = tested on: IGROV1 ovarian
K-562 leukemia = tested on: K-562 leukemia
KM12 colon = tested on: KM12 colon
LOX IMVI melanoma = tested on: LOX IMVI melanoma
M14 melanoma = tested on: M14 melanoma
MALME-3M melanoma = tested on: MALME-3M melanoma
MCF7 breast = tested on: MCF7 breast
MDA-MB-231 breast = tested on: MDA-MB-231 breast
MDA-MB-435 = tested on: MDA-MB-435
MOLT-4 leukemia = tested on: MOLT-4 leukemia
NCI-H226 lung = tested on: NCI-H226 lung
NCI-H23 lung = tested on: NCI-H23 lung
NCI-H460 lung = tested on: NCI-H460 lung
NCI/ADR-RES ovarian = tested on: NCI/ADR-RES ovarian
OVCAR-3 ovarian = tested on: OVCAR-3 ovarian
OVCAR-4 ovarian = tested on: OVCAR-4 ovarian
OVCAR-5 ovarian = tested on: OVCAR-5 ovarian
OVCAR-8 ovarian = tested on: OVCAR-8 ovarian
PC-3 prostate = tested on: PC-3 prostate
RPMI-8226 leukemia = tested on: RPMI-8226 leukemia
RXF 393 renal = tested on: RXF 393 renal
SF-268 CNS = tested on: SF-268 CNS
SF-295 CNS = tested on: SF-295 CNS
SF-539 CNS = tested on: SF-539 CNS
SK-MEL-28 melanoma = tested on: SK-MEL-28 melanoma
SK-MEL-5 melanoma = tested on: SK-MEL-5 melanoma
SK-OV-3 ovarian = tested on: SK-OV-3 ovarian
SN12C renal = tested on: SN12C renal
SNB-19 CNS = tested on: SNB-19 CNS
SNB-75 CNS = tested on: SNB-75 CNS
SR leukemia = tested on: SR leukemia
SW-620 colon = tested on: SW-620 colon
T-47D breast = tested on: T-47D breast
TK-10 renal = tested on: TK-10 renal
U251 CNS = tested on: U251 CNS
UACC-257 melanoma = tested on: UACC-257 melanoma
UACC-62 melanoma = tested on: UACC-62 melanoma
UO-31 renal = tested on: UO-31 renal

COc1cc(-c2nc(SCC(=O)Nc3ccc(C(C)=O)cc3)[nH]c(=O)c2C#N)cc(OC)c1OC
GI50 (786-0 renal): 41.7 µM | TGI (786-0 renal): > 100 µM | GI50 (A498 renal): 21.3 µM | TGI (A498 renal): 85 µM | GI50 (A549 NSCLC): > 100 µM | TGI (A549 NSCLC): > 100 µM | GI50 (ACHN renal): 85 µM | TGI (ACHN renal): > 100 µM | GI50 (BT-549 breast): 32 µM | TGI (BT-549 breast): 99.7 µM | GI50 (CCRF-CEM leukemia): 31.6 µM | TGI (CCRF-CEM leukemia): > 100 µM | GI50 (COLO 205 colon): > 100 µM | TGI (COLO 205 colon): > 100 µM | GI50 (DU-145 prostate): 62.6 µM | TGI (DU-145 prostate): > 100 µM | GI50 (EKVX NSCLC): > 100 µM | TGI (EKVX NSCLC): > 100 µM | GI50 (HCC-2998 colon): > 100 µM | TGI (HCC-2998 colon): > 100 µM | GI50 (HCT-116 colon): 42.1 µM | TGI (HCT-116 colon): > 100 µM | GI50 (HCT-15 colon): > 100 µM | TGI (HCT-15 colon): > 100 µM | GI50 (HL-60(TB) leukemia): 35 µM | TGI (HL-60(TB) leukemia): > 100 µM | GI50 (HOP-62 NSCLC): 79.3 µM | TGI (HOP-62 NSCLC): > 100 µM | GI50 (HOP-92 NSCLC): 22.6 µM | TGI (HOP-92 NSCLC): > 100 µM | GI50 (HT29 colon): 55.7 µM | TGI (HT29 colon): > 100 µM | GI50 (IGROV1 ovarian): 53.4 µM | TGI (IGROV1 ovarian): > 100 µM | GI50 (K-562 leukemia): 37.7 µM | TGI (K-562 leukemia): > 100 µM | GI50 (KM12 colon): 63.6 µM | TGI (KM12 colon): > 100 µM | GI50 (LOX IMVI melanoma): 41.7 µM | TGI (LOX IMVI melanoma): > 100 µM | GI50 (M14 melanoma): 37.4 µM | TGI (M14 melanoma): > 100 µM | GI50 (MALME-3M melanoma): 48.1 µM | TGI (MALME-3M melanoma): > 100 µM | GI50 (MCF7 breast): 40 µM | TGI (MCF7 breast): > 100 µM | GI50 (MDA-MB-231 breast): 38.7 µM | TGI (MDA-MB-231 breast): > 100 µM | GI50 (MDA-MB-435): 24.4 µM | TGI (MDA-MB-435): 87.6 µM | GI50 (MOLT-4 leukemia): 36.4 µM | TGI (MOLT-4 leukemia): > 100 µM | GI50 (NCI-H226 lung): 89.8 µM | TGI (NCI-H226 lung): > 100 µM | GI50 (NCI-H23 lung): > 100 µM | TGI (NCI-H23 lung): > 100 µM | GI50 (NCI-H460 lung): 39.1 µM | TGI (NCI-H460 lung): > 100 µM | GI50 (NCI/ADR-RES ovarian): > 100 µM | TGI (NCI/ADR-RES ovarian): > 100 µM | GI50 (OVCAR-3 ovarian): 34 µM | TGI (OVCAR-3 ovarian): > 100 µM | GI50 (OVCAR-4 ovarian): 82.9 µM | TGI (OVCAR-4 ovarian): > 100 µM | GI50 (OVCAR-5 ovarian): 85.1 µM | TGI (OVCAR-5 ovarian): > 100 µM | GI50 (OVCAR-8 ovarian): 73.7 µM | TGI (OVCAR-8 ovarian): > 100 µM | GI50 (PC-3 prostate): 36.4 µM | TGI (PC-3 prostate): > 100 µM | GI50 (RPMI-8226 leukemia): 29.9 µM | TGI (RPMI-8226 leukemia): > 100 µM | GI50 (RXF 393 renal): 40.1 µM | TGI (RXF 393 renal): > 100 µM | GI50 (SF-268 CNS): 68.7 µM | TGI (SF-268 CNS): > 100 µM | GI50 (SF-295 CNS): 43 µM | TGI (SF-295 CNS): > 100 µM | GI50 (SF-539 CNS): 29.6 µM | TGI (SF-539 CNS): > 100 µM | GI50 (SK-MEL-28 melanoma): 47.5 µM | TGI (SK-MEL-28 melanoma): > 100 µM | GI50 (SK-MEL-5 melanoma): 31.9 µM | TGI (SK-MEL-5 melanoma): > 100 µM | GI50 (SK-OV-3 ovarian): 38.6 µM | TGI (SK-OV-3 ovarian): > 100 µM | GI50 (SN12C renal): 70.2 µM | TGI (SN12C renal): > 100 µM | GI50 (SNB-19 CNS): 64 µM | TGI (SNB-19 CNS): > 100 µM | GI50 (SNB-75 CNS): 28.5 µM | TGI (SNB-75 CNS): > 100 µM | GI50 (SR leukemia): 19 µM | TGI (SR leukemia): > 100 µM | GI50 (SW-620 colon): 46.7 µM | TGI (SW-620 colon): > 100 µM | GI50 (T-47D breast): 34 µM | TGI (T-47D breast): > 100 µM | GI50 (TK-10 renal): 96.9 µM | TGI (TK-10 renal): > 100 µM | GI50 (U251 CNS): 55.6 µM | TGI (U251 CNS): > 100 µM | GI50 (UACC-257 melanoma): 97.4 µM | TGI (UACC-257 melanoma): > 100 µM | GI50 (UACC-62 melanoma): 28 µM | TGI (UACC-62 melanoma): > 100 µM | GI50 (UO-31 renal): 36.6 µM | TGI (UO-31 renal): > 100 µM
